Test results as given in ChEMBL document CHEMBL1201862, “PubChem BioAssay data set” (2004).
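All cell lines were grown in 96-well plates and treated with compound for 48 hours. Here, GI50 denotes the concentration required for 50% inhibition of growth.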 The source made the active and inactive calls. No stated cut-off is given here; in the data, active = GI50 up to about 1.1 µM and inactive = higher.

Experiments:
Test in all cases: NCI anticancer screen, dose series, 48 h
HT-29 = tested on: HT-29
SW-620 = tested on: SW-620
HOP-92 = tested on: HOP-92
M14 = tested on: M14
SNB-75 = tested on: SNB-75
ACHN = tested on: ACHN
SN12C = tested on: SN12C
OVCAR-8 = tested on: OVCAR-8
IGROV-1 = tested on: IGROV-1
RXF 393 = tested on: RXF 393
OVCAR-4 = tested on: OVCAR-4
UACC-257 = tested on: UACC-257
SF-295 = tested on: SF-295
A549 = tested on: A549
SNB-19 = tested on: SNB-19
HCT-116 = tested on: HCT-116
NCI-H460 = tested on: NCI-H460
HL-60 = tested on: HL-60
CAKI-1 = tested on: CAKI-1

| SMILES | GI50 (HT-29) | GI50 (SW-620) | GI50 (HOP-92) | GI50 (M14) | GI50 (SNB-75) | GI50 (ACHN) | GI50 (SN12C) | GI50 (OVCAR-8) | GI50 (IGROV-1) | GI50 (RXF 393) | GI50 (OVCAR-4) | GI50 (UACC-257) | GI50 (SF-295) | GI50 (A549) | GI50 (SNB-19) | GI50 (HCT-116) | GI50 (NCI-H460) | GI50 (HL-60) | GI50 (CAKI-1) |
| --- | --- | --- | --- | --- | --- | --- | --- | --- | --- | --- | --- | --- | --- | --- | --- | --- | --- | --- | --- |
| COc1cc2ccc(C(=O)O)cc2cc1OC | > 100 µM (inactive) | > 100 µM (inactive) | > 100 µM (inactive) | > 100 µM (inactive) | 37.4 µM (inactive) | > 100 µM (inactive) | > 100 µM (inactive) | > 100 µM (inactive) | > 100 µM (inactive) | > 100 µM (inactive) | > 100 µM (inactive) | > 100 µM (inactive) | > 100 µM (inactive) | > 100 µM (inactive) | > 100 µM (inactive) | > 100 µM (inactive) | > 100 µM (inactive) |  |  |
| CC(C)c1cccc(C(C)C)c1NC(=O)CCC(=O)NN | > 100 µM (inactive) | 21.9 µM (inactive) | > 100 µM (inactive) | > 100 µM (inactive) | > 100 µM (inactive) | > 100 µM (inactive) | > 100 µM (inactive) | > 100 µM (inactive) | > 100 µM (inactive) |  | > 100 µM (inactive) | > 100 µM (inactive) | > 100 µM (inactive) | > 100 µM (inactive) | > 100 µM (inactive) | 66.4 µM (inactive) | 84.9 µM (inactive) | > 100 µM (inactive) | > 100 µM (inactive) |
| Cc1cc(C)c2c(c1)CN1CN2Cc2cc(C)cc(C)c21 | 16.3 µM (inactive) | 31.5 µM (inactive) | > 10 µM (inactive) | 18.2 µM (inactive) | 4.36 µM (inactive) | 18 µM (inactive) | 16.9 µM (inactive) | 17.8 µM (inactive) | 23.4 µM (inactive) | 6.68 µM (inactive) | 18.3 µM (inactive) |  | 18.7 µM (inactive) | 27.2 µM (inactive) | < 0.01 µM (active) | 19.4 µM (inactive) | 15.9 µM (inactive) | 26.4 µM (inactive) | 34.1 µM (inactive) |
| CCOC(=O)C(=O)Nc1ccccc1C |  | > 100 µM (inactive) | > 100 µM (inactive) | > 100 µM (inactive) | > 100 µM (inactive) | > 100 µM (inactive) | > 100 µM (inactive) | > 100 µM (inactive) | > 100 µM (inactive) | > 100 µM (inactive) | > 100 µM (inactive) |  |  | > 100 µM (inactive) | > 100 µM (inactive) | > 100 µM (inactive) | > 100 µM (inactive) | 29.4 µM (inactive) | > 100 µM (inactive) |
| CCCCOC(=O)/C(CC(=O)C=C(C)C)=N\NS(=O)(=O)c1ccc(C)cc1 | > 100 µM (inactive) |  | > 100 µM (inactive) | > 100 µM (inactive) | > 100 µM (inactive) | > 100 µM (inactive) | > 100 µM (inactive) | > 100 µM (inactive) | > 100 µM (inactive) | > 100 µM (inactive) | > 100 µM (inactive) | > 100 µM (inactive) | > 100 µM (inactive) | > 100 µM (inactive) | > 100 µM (inactive) | > 100 µM (inactive) | > 100 µM (inactive) | > 100 µM (inactive) | > 100 µM (inactive) |
| O=C(OCc1ccccc1)c1ccccc1-c1c2ccc(=O)cc-2oc2cc(OCc3ccccc3)ccc12 | 18.4 µM (inactive) | 12.1 µM (inactive) | 3.56 µM (inactive) | 15.8 µM (inactive) |  | 6.93 µM (inactive) | 16.9 µM (inactive) | 12.1 µM (inactive) | 11 µM (inactive) | 14.4 µM (inactive) | 13.5 µM (inactive) | 8.95 µM (inactive) | 17.2 µM (inactive) | 6.7 µM (inactive) | 35.1 µM (inactive) | 9.46 µM (inactive) | 15.7 µM (inactive) | 5.48 µM (inactive) | 5.22 µM (inactive) |
| CCCNC(=O)C1C(=O)C(=O)N(CCC)C1=O (stereo not drawn) | > 100 µM (inactive) | > 100 µM (inactive) | > 100 µM (inactive) | > 100 µM (inactive) | > 100 µM (inactive) | > 100 µM (inactive) | > 100 µM (inactive) | > 100 µM (inactive) | > 100 µM (inactive) | > 100 µM (inactive) | > 100 µM (inactive) | > 100 µM (inactive) |  | > 100 µM (inactive) | > 100 µM (inactive) | > 100 µM (inactive) | > 100 µM (inactive) |  | > 100 µM (inactive) |
| O=C(O)c1ccc(Nc2nc3nn(Cc4ccccc4)cc3c(=O)s2)cc1 |  | > 100 µM (inactive) | > 100 µM (inactive) | > 100 µM (inactive) |  | > 100 µM (inactive) | > 100 µM (inactive) | > 100 µM (inactive) | > 100 µM (inactive) | > 100 µM (inactive) |  | > 100 µM (inactive) | > 100 µM (inactive) | > 100 µM (inactive) | > 100 µM (inactive) | > 100 µM (inactive) | > 100 µM (inactive) | > 100 µM (inactive) |  |
| Cc1ccc(C2OC(COCc3ccc(Cl)cc3)C(OCc3ccc(Cl)cc3)C2O)cc1 (stereo not drawn) | 7.69 µM (inactive) | 14.3 µM (inactive) | 3.18 µM (inactive) |  | 4.37 µM (inactive) | 15.1 µM (inactive) | 3.65 µM (inactive) | 13.7 µM (inactive) | 8.89 µM (inactive) | 3.19 µM (inactive) | 17.8 µM (inactive) | 17 µM (inactive) | 12.3 µM (inactive) | 9.42 µM (inactive) | 17.8 µM (inactive) | 11.5 µM (inactive) | 4.49 µM (inactive) |  | 11.4 µM (inactive) |
| COC(=O)NC12CC3CC(CC(F)(C3)C1)C2 | > 100 µM (inactive) | > 100 µM (inactive) | > 100 µM (inactive) | > 100 µM (inactive) | 19.7 µM (inactive) | > 100 µM (inactive) |  | > 100 µM (inactive) | > 100 µM (inactive) | > 100 µM (inactive) |  | > 100 µM (inactive) |  | > 100 µM (inactive) | > 100 µM (inactive) | > 100 µM (inactive) | > 100 µM (inactive) | > 100 µM (inactive) |  |
| Oc1cccc(C2SCc3nc4ccccc4n32)c1 (stereo not drawn) | > 100 µM (inactive) | > 100 µM (inactive) | 47.5 µM (inactive) |  | 4.17 µM (inactive) | 33.8 µM (inactive) | 82.2 µM (inactive) | 96.2 µM (inactive) |  | 78.7 µM (inactive) |  | 31.7 µM (inactive) | 39.1 µM (inactive) | 54.7 µM (inactive) | > 100 µM (inactive) | 67.9 µM (inactive) | 60.7 µM (inactive) | 25.5 µM (inactive) | 58.2 µM (inactive) |
| Cc1cccc(N(CC(=O)O)S(=O)(=O)c2ccccc2)c1 | > 100 µM (inactive) | > 100 µM (inactive) | > 100 µM (inactive) | > 100 µM (inactive) | > 100 µM (inactive) | > 100 µM (inactive) | > 100 µM (inactive) | > 100 µM (inactive) | > 100 µM (inactive) | > 100 µM (inactive) | > 100 µM (inactive) | > 100 µM (inactive) | > 100 µM (inactive) | > 100 µM (inactive) | > 100 µM (inactive) |  | > 100 µM (inactive) | > 100 µM (inactive) | > 100 µM (inactive) |
